Test results: PubChem BioAssay AID248 (DTP/NCI, 2004)
Inconclusive results and toxic doses are left out. No stated cut-off is given here; in the data, active means T/C of 150% or more; inactive means T/C below 125%.

Tested on: L1210 leukemia ip in BDF1 mice, survival T/C
Experiment: NCI In Vivo Anticancer Drug Screen. Data for tumor model L1210 Leukemia (intraperitoneal) in B6D2F1 (BDF1) mice
Conditions: endpoint: mean survival time, higher = longer survival
In short: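 Value reflects the ratio of survival in compound-treated mice to survival in vehicle-treated controls, with both groups carrying the same transplanted tumor.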

[1] = dose: 100.0 mg/kg/injection, schedule: Q04DX003 (ip), vehicle: saline
[2] = dose: 200.0 mg/kg/injection, schedule: Q04DX003 (ip), vehicle: saline
[3] = dose: 400.0 mg/kg/injection, schedule: Q04DX003 (ip), vehicle: saline
[4] = dose: 50.0 mg/kg/injection, schedule: Q01DX001 (ip), vehicle: saline
[5] = dose: 100.0 mg/kg/injection, schedule: Q01DX001 (ip), vehicle: saline
[6] = dose: 200.0 mg/kg/injection, schedule: Q01DX001 (ip), vehicle: saline
[7] = dose: 400.0 mg/kg/injection, schedule: Q01DX001 (ip), vehicle: saline
[8] = dose: 100.0 mg/kg/injection, schedule: Q04DX002 (ip), vehicle: saline

Measured: T/C

O=C1/C(=C/c2ccccc2)SC(=S)N1C1OC(CO)C(O)C(O)C1O (stereo unspecified)
inactive: dose: 12.5 mg/kg/injection, schedule: Q01DX005 (ip), vehicle: other 98 % of control | dose: 25.0 mg/kg/injection, schedule: Q01DX005 (ip), vehicle: other 98 % of control | dose: 50.0 mg/kg/injection, schedule: Q01DX005 (ip), vehicle: other 106 % of control | dose: 100.0 mg/kg/injection, schedule: Q01DX005 (ip), vehicle: other 101 % of control | dose: 200.0 mg/kg/injection, schedule: Q01DX005 (ip), vehicle: other 98 % of control

COc1cc2c(cc1O)CCCC(C)(C)C2=O
inactive: dose: 50.0 mg/kg/injection, schedule: Q01DX009 (ip), vehicle: saline with Tween-80 104 % of control | dose: 100.0 mg/kg/injection, schedule: Q01DX009 (ip), vehicle: saline with Tween-80 93 % of control | dose: 200.0 mg/kg/injection, schedule: Q01DX009 (ip), vehicle: saline with Tween-80 90 % of control

NN1CCN(N)C(=O)C1=O
inactive: [1] 105 % of control | [2] 108 % of control | [3] 97 % of control

O=C(CCCC(=O)N/N=C/c1ccc(Cl)c([N+](=O)[O-])c1)N/N=C\c1ccc(Cl)c([N+](=O)[O-])c1
inactive: [4] 96 % of control | [5] 102 % of control | [6] 96 % of control | [7] 98 % of control

CCC(C)OC(=O)C(C)OC(=O)OCCOCCOC(=O)OC(C)C(=O)OC(C)CC (stereo unspecified)
inactive: [5] 96 % of control | [6] 100 % of control | [7] 96 % of control

CC(=O)Nc1cccc(OCCCOc2ccc([N+](=O)[O-])cc2)c1
inactive: dose: 100.0 mg/kg/injection, schedule: Q01DX001 (ip), vehicle: carboxymethylcellulose (CMC) 95 % of control | dose: 200.0 mg/kg/injection, schedule: Q01DX001 (ip), vehicle: carboxymethylcellulose (CMC) 101 % of control | dose: 400.0 mg/kg/injection, schedule: Q01DX001 (ip), vehicle: carboxymethylcellulose (CMC) 90 % of control

CC1CNC(=O)C(=O)N1 (stereo unspecified)
inactive: [8] 98 % of control | dose: 200.0 mg/kg/injection, schedule: Q04DX002 (ip), vehicle: saline 102 % of control | dose: 400.0 mg/kg/injection, schedule: Q04DX002 (ip), vehicle: saline 94 % of control

CCN(CC)CCOC(=O)c1cccc2[nH]ccc12
inactive: [1] 104 % of control | [2] 109 % of control

CCC(Cl)COP(=O)(OCC(Cl)CC)OC(CC)P(=O)(OCC(Cl)CC)OCC(Cl)CC (stereo unspecified)
inactive: dose: 100.0 mg/kg/injection, schedule: Q04DX003 (ip), vehicle: Klucel (hydroxypropylcellulose) (HPC) 93 % of control | dose: 200.0 mg/kg/injection, schedule: Q04DX003 (ip), vehicle: Klucel (hydroxypropylcellulose) (HPC) 93 % of control | dose: 400.0 mg/kg/injection, schedule: Q04DX003 (ip), vehicle: Klucel (hydroxypropylcellulose) (HPC) 95 % of control

CCCCNC(C)(C)C(SSSC(c1cccs1)C(C)(C)NCCCC)c1cccs1 (stereo unspecified)
inactive: dose: 100.0 mg/kg/injection, schedule: Q04DX003 (ip), vehicle: saline sonified 97 % of control | dose: 200.0 mg/kg/injection, schedule: Q04DX003 (ip), vehicle: saline sonified 107 % of control | dose: 400.0 mg/kg/injection, schedule: Q04DX003 (ip), vehicle: saline sonified 100 % of control

CCNC(=S)OC1CCC2(C)C(=CCC3C2CCC2(C)C(C(C)CCC(CC)C(C)C)CCC32)C1 (stereo unspecified)
inactive: dose: 100.0 mg/kg/injection, schedule: Q04DX002 (ip), vehicle: saline with Tween-80 87 % of control | dose: 200.0 mg/kg/injection, schedule: Q04DX002 (ip), vehicle: saline with Tween-80 87 % of control | dose: 400.0 mg/kg/injection, schedule: Q04DX002 (ip), vehicle: saline with Tween-80 94 % of control

C=C1CCC2C(O)CCN2C1=O (stereo unspecified)
inactive: dose: 25.0 mg/kg/injection, schedule: Q01DX001 (ip), vehicle: saline 103 % of control | [4] 106 % of control | [5] 109 % of control | [6] 104 % of control

O/N=C1/CCN2CCCc3cccc1c32
inactive: dose: 100.0 mg/kg/injection, schedule: Q04DX003 (ip), vehicle: saline with Tween-80 94 % of control | dose: 200.0 mg/kg/injection, schedule: Q04DX003 (ip), vehicle: saline with Tween-80 97 % of control

CCOC(=O)C1CCC(C(=O)OCC)N1c1ccc(C=O)cc1 (stereo unspecified)
inactive: dose: 100.0 mg/kg/injection, schedule: Q01DX009 (sc), vehicle: olive oil, sesame oil, peanut oil 104 % of control | dose: 100.0 mg/kg/injection, schedule: Q04DX003 (sc), vehicle: olive oil, sesame oil, peanut oil 112 % of control | dose: 200.0 mg/kg/injection, schedule: Q01DX009 (sc), vehicle: olive oil, sesame oil, peanut oil 96 % of control | dose: 200.0 mg/kg/injection, schedule: Q04DX003 (sc), vehicle: olive oil, sesame oil, peanut oil 112 % of control | dose: 400.0 mg/kg/injection, schedule: Q01DX009 (sc), vehicle: olive oil, sesame oil, peanut oil 110 % of control | dose: 400.0 mg/kg/injection, schedule: Q04DX003 (sc), vehicle: olive oil, sesame oil, peanut oil 102 % of control

CCCCCCCCC(N)C(=O)O (stereo unspecified)
inactive: dose: 25.0 mg/kg/injection, schedule: Q04DX002 (ip), vehicle: gum acacia 107 % of control | dose: 50.0 mg/kg/injection, schedule: Q04DX002 (ip), vehicle: Klucel (hydroxypropylcellulose) (HPC) 91 % of control | dose: 50.0 mg/kg/injection, schedule: Q04DX002 (ip), vehicle: gum acacia 95 % of control | dose: 100.0 mg/kg/injection, schedule: Q04DX002 (ip), vehicle: Klucel (hydroxypropylcellulose) (HPC) 98 % of control | dose: 100.0 mg/kg/injection, schedule: Q04DX002 (ip), vehicle: gum acacia 114 % of control | dose: 200.0 mg/kg/injection, schedule: Q04DX002 (ip), vehicle: Klucel (hydroxypropylcellulose) (HPC) 95 % of control

O=C(Nc1cccc(O)c1)c1ccccc1Cl
inactive: dose: 100.0 mg/kg/injection, schedule: Q01DX009 (ip), vehicle: Klucel (hydroxypropylcellulose) (HPC) 96 % of control | dose: 200.0 mg/kg/injection, schedule: Q01DX009 (ip), vehicle: Klucel (hydroxypropylcellulose) (HPC) 97 % of control | dose: 400.0 mg/kg/injection, schedule: Q01DX009 (ip), vehicle: Klucel (hydroxypropylcellulose) (HPC) 92 % of control

CC(C)SC(=S)Nc1ccc(Cl)c(Cl)c1
inactive: dose: 30.0 mg/kg/injection, schedule: Q04DX003 (ip), vehicle: saline 95 % of control | dose: 60.0 mg/kg/injection, schedule: Q04DX003 (ip), vehicle: saline 98 % of control | dose: 120.0 mg/kg/injection, schedule: Q04DX003 (ip), vehicle: saline 95 % of control

O=C(O)c1ccc(NCc2cc(=O)[nH]c(=O)[nH]2)cc1
inactive: [1] 101 % of control | [2] 95 % of control | [3] 103 % of control

CC1(C)C=C(C(N)=O)C(C)(C)N1O
inactive: dose: 50.0 mg/kg/injection, schedule: Q01DX009 (ip), vehicle: other 98 % of control | dose: 100.0 mg/kg/injection, schedule: Q01DX009 (ip), vehicle: other 101 % of control | dose: 200.0 mg/kg/injection, schedule: Q01DX009 (ip), vehicle: other 95 % of control

O=C(CCl)NP(=O)(O)O
inactive: dose: 25.0 mg/kg/injection, schedule: Q04DX002 (ip), vehicle: saline 97 % of control | dose: 50.0 mg/kg/injection, schedule: Q04DX002 (ip), vehicle: saline 102 % of control | [8] 102 % of control

CCCCCCCCN1C(=O)c2ccccc2S1(=O)=O
inactive: dose: 222.0 mg/kg/injection, schedule: Q01DX Z (ip), vehicle: saline 105 % of control | dose: 333.0 mg/kg/injection, schedule: Q01DX Z (ip), vehicle: saline 100 % of control | dose: 500.0 mg/kg/injection, schedule: Q01DX Z (ip), vehicle: saline 113 % of control
